{"source": "patent US9944721B2", "about": "“Polysialic acid and use for treatment of neurodegenerative and neuroinflammatory diseases” (RHEINISCHE FRIEDRICH-WILHELMS UNIVERSITÄT BONN, priority 2013, dated 2018)", "key": {"[1]": {"test_system": "human microglial line derived from induced pluripotent stem cells (expressing Siglec-11)", "experiment": "MTT cell viability of human microglia treated with sialic acid forms", "type": "cell-based", "method": "A human microglial line derived from induced pluripotent stem cells as described in WO 2010/125110 was used to study the effect of sialic acid forms with different chain length. Human microglial cells were cultured on 5 μg/ml poly-L-lysin (PLL, Sigma)-coated dishes in N2-medium containing DMEM/F12 culture medium (Gibco) supplemented with 1% N2 (Invitrogen), 0.48 mM L-glutamine (Gibco) and optionally 100 μg/ml penicillin/streptomycin (Gibco). Cells were cultured with high density and splitted 1:2 when required.\nThe effect of different length and fractions of oligosialic acids and polysialic acids on the human microglial lines were analyzed by determination of cell viability normalized to the cell number and after treatment with monomeric sialic acid (SA, molecular weight of 0.3 kDa, Nacalai Tesque ING, Japan) and sialic acids consisting of 3 monomers (Tri-SA; molecular weight of 0.9 kDa, Nacalai Tesque ING, Japan) and sialic acids consisting of 6 monomers (Hexa-SA; molecular weight of 1.9 kDa, Nacalai Tesque ING, Japan), PSA with a number of sialic acid monomers between 14 and 26 (PSA-20; low molecular weight of PSA between 4.3 and 8 kDa for >90% of the substance) and PSA with a length between 46 and 110 of sialic acid monomers (PSA-60; medium molecular weight of PSA between 14.2 and 34 kDa for >90% of the substance).\nThe microglial cells were cultured in medium as described above and treated in culture with the different sialic acid forms.\nCell viability was determined by the MTT (3-(4,5-Dimethylthiazol-2-yl)-2,5-diphenyltetrazolium bromide, Millipore) assay after 24 hours treatment with distinct sialic acid forms with different chain length and normalized to the cell number. The light absorbance of the purple formazan in living cells was determined by a spectrophotometer at a wavelength of 570 nm (Perkin Elmer, Envision Multiplate Reader)."}, "[2]": {"test_system": "humanized Siglec-11 transgenic mice or littermate control mice", "experiment": "Laser-induced animal model of macular degeneration, intravitreal injection", "type": "in vivo", "from_the_text": "An animal model of macular degeneration was induced by laser technology. Experimental damage of the mouse retina using a laser is a well-accepted animal model for age-related macular degeneration. Laser coagulation and direct damage of Bruch's membrane rapidly lead to microglia and complement activation and induce vascular leakage. Fluorescence angiography is an established method to detect vascular leakage in the retina.\nHumanized Siglec-11 transgenic mice (Wang Y, 2009, dissertation, University Bonn, uniform resource name: urn:nbn:de:hbz:5N-18095) or littermate control mice were used in this experiment.\nThree argon laser coagulation spots were induced (125 mW, 100 ms, […], Viridis, Quantel Medical, France) in the retina of the mice. Directly afterwards the mice were injected intra-vitreally with PSA-20 (3 μg/per eye) or a PBS vehicle control.\nRetinal tissue was analyzed 48 hours after the laser lesion by immunohistochemistry. Therefore, whole mount immunostaining was performed with a polyclonal rabbit-anti-ionized calcium-binding adapter molecule 1 (Iba1) antibody followed by fluorescein (FITC)-conjugated secondary antibody directed against rabbit immunoglobulin (IgG). Confocal images of the inner plexiform layer from the retina were collected and the percentage of the activated amoeboid microglia in relation to the total Iba1-positive microglia was determined in and outside the laser lesion of the PSA-20 treated Siglec-11 and the control mice.\nTo determine the inflammation mediated vascular leakage, fluorescein angiography was performed 48 hours after laser coagulation lesion of the retina. In detail, anesthetized animals were injected intraperitoneally with 0.1 ml 2.5% fluorescein in 0.9% sterile NaCl. Late stage angiography pictures were taken eleven minutes after fluorescein injection on a Spectralis HRA2 retina angiograph (Heidelberg Engineering) to visualize vessel leakage. Angiography pictures were exported from Heidelberg Eye Explorer Software as jpeg files. Pixel intensities of 6 regions of interest (roi) per picture were quantified with ImageJ and background fluorescence was subtracted.\nAt 48 hours before angiography, three argon laser coagulation spots were induced (125 mW, 100 ms, 100 μm, Viridis, Quantel Medical, France) in the retina of the Siglec-11 transgenic or littermate control mice. Mice were injected intra-vitreally with PSA-20 (3 μg/per eye) or a PBS vehicle control. […] Statistically significant groups were determined by One-Way ANOVA and Student's t-test. […]\nAgain, the laser damage of retinas was induced in the humanized Siglec-11 transgenic mice or littermate controls as described above. […] Single data points indicate individual eyes analyzed. Data were analyzed by ordinary one-way ANOVA followed by Tukey's multiple comparisons test. […]"}}, "data": [{"substance": "poly-(α(2→8)Neu5Ac)n [PSA-20]", "values": [{"measurement": "metabolic activity of the microglial cells (MTT, normalized to cell number)", "setting": "[1]; 24 hours treatment, 0.15 μM, 0.5 μM and 1.5 μM, FIG. 2B", "value": "did not affect the metabolic activity"}, {"measurement": "Intact viability of human microglia", "setting": "[1]; summary of Example 3, MTT, 24 hours", "value": "Yes"}, {"measurement": "Microglial activation (activated amoeboid microglia to total Iba1-positive microglia)", "setting": "[2]; Siglec-11 transgenic mice, 3 μg/per eye intravitreal, 48 hours after laser lesion, FIG. 7D", "value": "significantly reduced"}, {"measurement": "vascular leakage (fluorescein angiography)", "setting": "[2]; Siglec-11 transgenic mice, 3 μg/per eye intravitreal, 48 hours after laser, FIG. 7E", "value": "significantly reduced vascular leakage"}, {"measurement": "microglial Iba1 immunoreactivity", "setting": "[2]; normal mice, 3 μg/per eye intravitreal, 48 hours after laser lesion", "value": "No effect"}, {"measurement": "vascular leakage (fluorescein angiography)", "setting": "[2]; repeat, at least 8 retinas per group, Siglec-11 transgenic mice, 48 hours, vehicle 117.8+/−7.8, FIG. 7G", "value": "84.07+/−8.2"}]}]}
